Reference: patent publication US7081447B2, “Organic compounds with biological activity as thrombin inhibitors and use thereof” (Novel Science International GmbH, priority 2001, dated 2006)

molecular target: T1, thrombin (Homo sapiens, UniProt P00734); assay: not given; conditions: cited from earlier work

Row | Substance | Ki [µM]
1 | H-D-Phe-Pro-Arg-H | 0.07

molecular target: T1, thrombin; assay: in vitro inhibition of thrombin amidase activity (fluorogenic substrate Tos-Gly-Pro-Arg-(7-amino-4-methylcoumarin)); format: biochemical; set-up: with 10 μL of human thrombin solution; conditions: peptide concentration of 250 nM
Protocol: (§1) The values of the inhibition constant Ki were obtained from assays, in which thrombin hydrolyzes the fluorogenic substrate Tos-Gly-Pro-Arg-(7-amino-4-methylcoumarin). The assays were performed in 30 μL of assay buffer (0.05 M Tris, 0.1 M NaCl, 0.1% PEG 8000, pH 7.6) with 10 μL of human thrombin solution (10^−5 U/μL in assay buffer) and 140 μL of a solution of the fluorogenic substrate in assay buffer at a concentration v of 30 μM. Solutions of the test compound (10 μL) were added at various concentrations. The rates of substrate hydrolysis were measured by monitoring the reactions of 7-amino-4-methylcoumarin release at 460 nm with use of AMC. The reaction reached a steady state within 3 minutes after thrombin was combined with the substrate and an inhibitor. The kinetic data of the competitive inhibition (Km, Vmax, and Ki) were analyzed with the aid of the Hanes plot (A/V vs. A at various i values).
as §1, with “concentration” for “concentration v”, “using” for “with the aid of”, “values for A; here, A is the substrate concentration and V the reaction rate).” for “i values).”
as §1, with “conducted” for “performed”, “concentration” for “concentration v”, “using” for “with the aid of”, “values for A; here, A is the substrate concentration and V the reaction rate).” for “i values).”

Row | Substance | Thrombin inhibition (thrombin amidase activity) [%]
2 | N-Acetyl-L-Tea-D-Cha-L-Aze-D-Tyr-L-Har amide [Example 82] | 74
3 | N-Acetyl-L-Trp-D-Cha-L-Aze-D-Tyr-L-Har amide [Example 75] | 76

same assay, conditions: peptide concentration of 1 μM

Row | Substance | Thrombin inhibition (thrombin amidase activity) [%]
4 | N-Acetyl-L-Ser-L-Cha-D-Pro-D-Tyr-L-Arg amide [Example 22] | 31
5 | N-Acetyl-L-Ser-L-Cha-L-Cha-D-Pro-D-Tyr-L-Arg amide [Example 19] | 43
6 | N-Acetyl-L-Trp-L-Cha-D-Pro-D-Tyr-L-Arg amide [Example 33] | 63
7 | N-Acetyl-L-Tyr-D-Pro-L-Cha-D-Pro-D-Tyr-L-Arg amide [Example 39] | 44

same assay, conditions: peptide concentration of 1 μM; 1 µM

Row | Substance | Thrombin inhibition (thrombin amidase activity) [%]
8 | N-Acetyl-L-Ser-L-Ala-L-Cha-D-Pro-D-Tyr-L-Arg amide [Example 67] | 47
9 | N-Acetyl-L-Ser-L-Arg-L-Cha-D-Pro-D-Tyr-L-Arg amide [Example 18] | 67
10 | N-Acetyl-L-Ser-L-Arg-L-Cha-D-Pro-D-Tyr-L-Arg amide [Example 35] | 51
11 | N-Acetyl-L-Ser-L-Arg-L-Cha-D-Pro-D-Tyr-L-Arg amide [Example 50] | 51
12 | N-Acetyl-L-Ser-L-Arg-L-Cha-D-Pro-D-Tyr-L-Arg amide [Example 68] | 51
13 | N-Acetyl-L-Ser-L-Ser-L-Cha-D-Pro-D-Tyr-L-Arg amide [Example 13] | 49
14 | N-Acetyl-L-Ser-L-Ser-L-Cha-D-Pro-D-Tyr-L-Arg amide [Example 31] | 40
15 | N-Acetyl-L-Ser-L-Ser-L-Cha-D-Pro-D-Tyr-L-Arg amide [Example 46] | 40
16 | N-Acetyl-L-Ser-L-Ser-L-Cha-D-Pro-D-Tyr-L-Arg amide [Example 64] | 40
17 | N-Acetyl-L-Tyr-L-Cit-L-Cha-D-Pro-D-Tyr-L-Arg amide [Example 15] | 51
18 | N-Acetyl-L-Tyr-L-Cit-L-Cha-D-Pro-D-Tyr-L-Arg amide [Example 30] | 55
19 | N-Acetyl-L-Tyr-L-Cit-L-Cha-D-Pro-D-Tyr-L-Arg amide [Example 45] | 55
20 | N-Acetyl-L-Tyr-L-Cit-L-Cha-D-Pro-D-Tyr-L-Arg amide [Example 63] | 55
